# The supplement of paper PMC7244745
# ± gives the uncertainty stated by the source.
# Columns and labels:
# [1] = test system: Klebsiella pneumoniae ATCC 13882; assay: onset of ureolytic pH increase; higher = more delayed ureolysis (inhibition)
# Experimental: (§1)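 Klebsiella pneumoniae ATCC 13882 (start OD600 0.05) grown in M9U medium with 40 mM urea and phenol red plus inhibitor, in triplicate in 96-well plates. A557 and OD630 were read every 15 min for 24 h. Ureolysis was followed as the pH-related A557-A630: onset time, Gompertz-fit rate and final value. Growth was followed as OD630.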
# [2] = test system: Klebsiella pneumoniae ATCC 13882; assay: rate of pH (A557-A630) increase, Gompertz fit (10^-4 s-1); higher = faster ureolysis; extreme values may be limits of the assay
# Experimental: as §1
# [3] = test system: Klebsiella pneumoniae ATCC 13882; assay: final pH-related absorbance (A557-A630) after 24 h (absorbance units); higher = more ureolysis; extreme values may be limits of the assay
# Experimental: as §1
# [4] = test system: Klebsiella pneumoniae ATCC 13882; assay: final OD630 (growth) after 24 h; higher = more bacterial growth; extreme values may be limits of the assay
# Experimental: as §1
Compound,onset of ureolytic pH increase ([1]; 0.1 mM) [min],onset of ureolytic pH increase ([1]; 1 mM) [min],onset of ureolytic pH increase ([1]; 10 mM) [min],rate of pH ([2]; 0.1 mM),rate of pH ([2]; 1 mM),rate of pH ([2]; 10 mM),final pH-related absorbance ([3]; 0.1 mM),final pH-related absorbance ([3]; 1 mM),final pH-related absorbance ([3]; 10 mM),final OD630 ([4]; 0.1 mM),final OD630 ([4]; 1 mM),final OD630 ([4]; 10 mM),other results
"O=C(O)CCC(CC(=O)O)C(=O)O (stereo not drawn) [1,2,4-butanetricarboxylic acid]",685.49 ± 0.14,678.3 ± 3.3,> 900,1.526 ± 0.014,1.58 ± 0.019,0,0.33 ± 0.0058,0.277 ± 0.0026,0,0.424 ± 0.0051,0.433 ± 0.0031,0,
NC(=S)Nc1cccc(C(=O)O)c1 [1-(3-Carboxyphenyl)-2-thiourea],,,,,,,,,,,,,onset of ureolytic pH increase ([1]; 0.00075 mM): 436 ± 6.5 min; onset of ureolytic pH increase ([1]; 0.0075 mM): 423 ± 18 min; onset of ureolytic pH increase ([1]; 0.075 mM): 435 ± 6.4 min; rate of pH ([2]; 0.00075 mM): 1.92 ± 0.078; rate of pH ([2]; 0.0075 mM): 2.06 ± 0.18; rate of pH ([2]; 0.075 mM): 2.15 ± 0.048; final pH-related absorbance ([3]; 0.00075 mM): 0.246 ± 0.012; final pH-related absorbance ([3]; 0.0075 mM): 0.27 ± 0.023; final pH-related absorbance ([3]; 0.075 mM): 0.24 ± 0.011; final OD630 ([4]; 0.00075 mM): 0.489 ± 0.005; final OD630 ([4]; 0.0075 mM): 0.51 ± 0.017; final OD630 ([4]; 0.075 mM): 0.49 ± 0.01
O[C@@H](CS)[C@@H](O)CS [1.4-dithiothreitol],610 ± 19,980 ± 19,1010 ± 7.1,1.81 ± 0.074,0.11 ± 0.0047,0.0642 ± 0.0044,0.381 ± 0.013,0.274 ± 0.02,0.137 ± 0.013,0.432 ± 0.079,0.306 ± 0.0084,0.264 ± 0.0063,
O=C1CC(=O)NC(=S)N1 [2-Thiobarbituric acid],,,,,,,,,,,,,onset of ureolytic pH increase ([1]; 0.012 mM): 556.8 ± 1.3 min; onset of ureolytic pH increase ([1]; 0.118 mM): 581 ± 24 min; onset of ureolytic pH increase ([1]; 1.18 mM): > 900 min; rate of pH ([2]; 0.012 mM): 2.14 ± 0.06; rate of pH ([2]; 0.118 mM): 2.04 ± 0.024; rate of pH ([2]; 1.18 mM): 0; final pH-related absorbance ([3]; 0.012 mM): 0.201 ± 0.008; final pH-related absorbance ([3]; 0.118 mM): 0.194 ± 0.006; final pH-related absorbance ([3]; 1.18 mM): 0; final OD630 ([4]; 0.012 mM): 0.449 ± 0.007; final OD630 ([4]; 0.118 mM): 0.437 ± 0.008; final OD630 ([4]; 1.18 mM): 0.303 ± 0.028
O=[N+]([O-])C(Br)(CO)CO [2-bromo-2-nitropropane-1.3-diol],> 1500,> 1500,> 1500,0,0,0,0,0,0,0,0,0,
OCCS [2-mercaptoethanol],602 ± 7.5,> 1500,> 1500,1.72 ± 0.061,0,0,0.19 ± 0.0096,0,0,0.416 ± 0.0027,0.208 ± 0.0036,0.155 ± 0.0041,
CC1=CC(=O)C(C)=CC1=O [2.5-dimethyl-1.4-benzoquinone],,,,,,,,,,,,,onset of ureolytic pH increase ([1]; 0.011 mM): 594.3 ± 2.4 min; onset of ureolytic pH increase ([1]; 0.107 mM): 945 min; onset of ureolytic pH increase ([1]; 1.07 mM): 0 min; rate of pH ([2]; 0.011 mM): 1.46 ± 0.047; rate of pH ([2]; 0.107 mM): 1.97; rate of pH ([2]; 1.07 mM): 0.535 ± 0.0079; final pH-related absorbance ([3]; 0.011 mM): 0.152 ± 0.0068; final pH-related absorbance ([3]; 0.107 mM): 0.116; final pH-related absorbance ([3]; 1.07 mM): 0.475 ± 0.011; final OD630 ([4]; 0.011 mM): 0.33 ± 0.011; final OD630 ([4]; 0.107 mM): 0.336; final OD630 ([4]; 1.07 mM): 0
O=c1oc2ccccc2c(O)c1Cc1c(O)c2ccccc2oc1=O [3.3'-methylene-bis-(4-hydroxycoumarin)],,,,,,,,,,,,,onset of ureolytic pH increase ([1]; 0.0035 mM): 563 ± 1.1 min; onset of ureolytic pH increase ([1]; 0.035 mM): 592 ± 30 min; onset of ureolytic pH increase ([1]; 0.35 mM): 614 ± 8.9 min; rate of pH ([2]; 0.0035 mM): 1.45 ± 0.019; rate of pH ([2]; 0.035 mM): 1.44 ± 0.039; rate of pH ([2]; 0.35 mM): 1.4; final pH-related absorbance ([3]; 0.0035 mM): 0.161 ± 0.0024; final pH-related absorbance ([3]; 0.035 mM): 0.158 ± 0.0007; final pH-related absorbance ([3]; 0.35 mM): 0.16 ± 0.0029; final OD630 ([4]; 0.0035 mM): 0.424 ± 0.0021; final OD630 ([4]; 0.035 mM): 0.409 ± 0.012; final OD630 ([4]; 0.35 mM): 0.403 ± 0.0058
OB(O)c1ccc(Br)cc1 [4-bromophenylboronic acid],,,,,,,,,,,,,onset of ureolytic pH increase ([1]; 0.0017 mM): 745 ± 19 min; onset of ureolytic pH increase ([1]; 0.017 mM): 0 min; onset of ureolytic pH increase ([1]; 0.173 mM): > 1500 min; rate of pH ([2]; 0.0017 mM): 0.0566 ± 0.0019; rate of pH ([2]; 0.017 mM): 0.0294 ± 0.0052; rate of pH ([2]; 0.173 mM): 0; final pH-related absorbance ([3]; 0.0017 mM): 0.12 ± 0.0018; final pH-related absorbance ([3]; 0.017 mM): 0.269 ± 0.042; final pH-related absorbance ([3]; 0.173 mM): 0; final OD630 ([4]; 0.0017 mM): 0.451 ± 0.0066; final OD630 ([4]; 0.017 mM): 0; final OD630 ([4]; 0.173 mM): 0
CC(=O)NO [Acetohydroxamic acid],507 ± 13,725 ± 9.2,> 900,1.12 ± 0.047,1.31 ± 0.054,0,0.437 ± 0.044,0.057 ± 0.006,0,0.479 ± 0.016,0.356 ± 0.01,0.258 ± 0.004,
CC(=O)NC(N)=S [Acetylthiourea],,,,,,,,,,,,,onset of ureolytic pH increase ([1]; 0.05 mM): 428 ± 8.9 min; onset of ureolytic pH increase ([1]; 0.5 mM): 425.7 ± 3.9 min; onset of ureolytic pH increase ([1]; 5 mM): 415 ± 16 min; rate of pH ([2]; 0.05 mM): 2 ± 0.057; rate of pH ([2]; 0.5 mM): 2.03 ± 0.042; rate of pH ([2]; 5 mM): 2.62 ± 0.37; final pH-related absorbance ([3]; 0.05 mM): 0.241 ± 0.011; final pH-related absorbance ([3]; 0.5 mM): 0.246 ± 0.002; final pH-related absorbance ([3]; 5 mM): 0.284 ± 0.05; final OD630 ([4]; 0.05 mM): 0.491 ± 0.011; final OD630 ([4]; 0.5 mM): 0.491 ± 0.004; final OD630 ([4]; 5 mM): 0.507 ± 0.021
O=[N+]([O-])[O-].[Ag+] [AgNO3],> 1500,> 1500,> 1500,0,0,0,0,0,0,0,0,0,
NC(=O)NC1NC(=O)NC1=O (stereo not drawn) [Allantoin],,,,,,,,,,,,,onset of ureolytic pH increase ([1]; 0.033 mM): 577.5 ± 5.1 min; onset of ureolytic pH increase ([1]; 0.33 mM): 577.1 ± 4.4 min; onset of ureolytic pH increase ([1]; 3.33 mM): 602 ± 7 min; rate of pH ([2]; 0.033 mM): 1.66 ± 0.032; rate of pH ([2]; 0.33 mM): 1.718 ± 0.017; rate of pH ([2]; 3.33 mM): 1.68 ± 0.02; final pH-related absorbance ([3]; 0.033 mM): 0.231 ± 0.0095; final pH-related absorbance ([3]; 0.33 mM): 0.216 ± 0.003; final pH-related absorbance ([3]; 3.33 mM): 0.222 ± 0.0053; final OD630 ([4]; 0.033 mM): 0.525 ± 0.0093; final OD630 ([4]; 0.33 mM): 0.507 ± 0.0058; final OD630 ([4]; 3.33 mM): 0.495 ± 0.0081
C=CCNC(N)=S [Allylthiourea],563.5 ± 4.1,596 ± 29,776 ± 7.4,1.47 ± 0.046,1.454 ± 0.0015,1.383 ± 0.0037,0.159 ± 0.0052,0.154 ± 0.0052,0.135 ± 0.0034,0.417 ± 0.013,0.397 ± 0.015,0.366 ± 0.0047,
OB(O)O [Boric acid],591 ± 6.2,616 ± 34,> 900,1.62 ± 0.03,1.48 ± 0.2,0,0.409 ± 0.0087,0.418 ± 0.018,0,0.437 ± 0.0082,0.432 ± 0.0018,0.297 ± 0.0064,
NCCNCCNCCN [Triethylenetetraamine],,,,,,,,,,0.448 ± 0.091,0.384 ± 0.017,0,
